Data as given in patent publication US7786142B2, “Heterocyclic compounds as pSTAT3/IL-6 inhibitors” (Orchid Research Laboratories, Ltd., priority 2005, dated 2010).
“Also recorded” adds a separate entry of the source.

Tests used:
[1] = test system: NCIH460, HCT116, MDAMB-231/U 251; experiment: Anti-cancer screen, mean GI50 over the cell lines; assay type: cell-based
Protocol: (§1) Experimental drugs are screened for anti-cancer activity in three cell lines for their GI50, TGI and LC50 values (using five concentrations for each compound). The cell lines are maintained in DMEM containing 10% fetal bovine serum. 96 well micro titer plates are inoculated with cells in 100 μL for 24 hours at 37° C., 5% CO2, 95% air and 100% relative humidity. 5000 HCT116 cells/well, 5000 NCIH460 cells/well and 5000 U251 cells/well are plated. A separate plate with these cell lines is also inoculated to determine cell viability before the addition of the compounds (T0), (See Table I).
(§2) Following 24-hours incubation, experimental drugs are added to the 96 well plates. Each plate contains one of the above cell lines and the following in triplicate: five different concentrations (0.01, 0.1, 1, 10 and 100 μM) of four different compounds, appropriate dilutions of a cytotoxic standard and control (untreated) wells. Compounds are dissolved in DMSO to make 20 mM stock solutions on the day of drug addition and frozen at −20° C. Serial dilutions of these 20 mM stock solutions are made in complete growth medium such that 100 μL of these drug solutions in medium, of final concentrations equaling 0.01, 0.1, 1, 10 and 100 μM can be added to the cells in triplicate. Standard drugs whose anti-cancer activity has been well documented and which are regularly used are Doxorubicin and SAHA, (See Table I).
(§3) For T0 measurement, 24 hours after seeding the cells, 10 μL of 3-(4,5-Dimethyl-2-thiazolyl)-2,5-diphenyl-2H-tetrazolium (MTT) solution per well is added and incubation carried out for 3 hours at 37° C., 5% CO2, 95% air and 100% relative humidity, protected from light. Cells incubated with compounds for 48 hours are treated similarly except with the addition of 20 μL MTT solution per well and a subsequent incubation under the same conditions. After 3 hours of MTT incubation, well contents are aspirated carefully followed by addition of 150 μL DMSO per well. Plates are agitated to ensure solution of the formazan crystals in DMSO and absorbance read at 570 nm, (See Table I).
(§4) Percent growth is calculated for each compound's concentration relative to the control and zero measurement wells (T0; viability right before compound addition). If a test well's O.D. value is greater than the T0 measurement for that cell line % Growth=(test−zero)/(control−zero)×100

[2] = test system: IL-6; experiment: IL-6 in culture supernatants of NCIH 460 cells (ELISA); assay type: cell-based, Human; settings: NCIH 460, 5 hours
Protocol: Human Lung Cancer cell line (NCIH 460) is used for IL-6 measurement. 5000 cells/well were seeded in a 96 well plate and incubated in CO2 incubator at 37° C. for 24 hours. After 24 hours of incubation the medium from all wells were completed removed and added 100 μl of fresh DMEM containing 10% FCS. 100 μl of different concentrations of the drug were added and incubated for 5 hours in CO2 incubator at 37° C. After 5 hours of incubation the supernatants were collected and stored at −80° C. The concentration of IL-6 in the supernatant was measured using ELISA kit and the IC50 value of the compound was determined from the dose response curve, (See Table II).

[3] = test system: HCT116 cells; experiment: Anti-cancer screen (MTT), HCT116 cells; assay type: cell-based; settings: Homo sapiens, HCT-116, HCT116, 48 hours, concentrations tested 0.01-100 μM
Protocol: as §1, §2, §3, §4

[4] = test system: NCI H460 Xenograft; experiment: In-vivo anti-cancer activity, NCI H460 xenograft model; design: species or system SCID mice; settings: for in-vivo anti-cancer activity: NCI H460 Xenograft model, in words
Protocol: Experiments were carried out using 6-8 week old female athymic SCID (Severe Combined Immune Deficient) mice. The mice were kept in laminar flow rooms (housed in Individually Ventilated Cages) at constant temperature and humidity. They had free access to food and water. Tumors were obtained form ATCC and maintained by s.c. passages of tumor fragments (about 2×2×2 mm) in healthy mice according to standard reported procedures. Each experimental group included six/eight mice bearing bilateral tumors. Tumors were implanted on day 0, and tumor growth was followed by biweekly measurements of tumor diameters with a Vernier caliper. Tumor Volume (TV) was calculated according to the following formula: TV (mm^3)=d^2 XD/2, where d and D are the shortest diameter and the longest diameter of the tumor, respectively. The drug treatment started when tumors were just measurable (Mean TV=150-200 mm^3).
(§5) All test compound/standard drugs were delivered by gavage in a volume of 10 ml/kg. Drugs were administered every day for single time to a period of 21 days. Control mice were treated with the drug solvent/vehicle. Tumor size is measured every alternate days and body weight is recorded daily.
(§6) • a) Tumor Volume Inhibition (TVI): A TVI value higher than 80% is indicative of active compounds. • b) T/C % is also another indicator for the activity. A reproducible 20% T/C is considered as therapeutically active. • c) Log Cell Kill (LCK): A LCK value greater than 1 is indicative of active compounds. • d) Relative Tumor Volume (RTV), Tumor Delay and % Tumor volume change are also considered as valuable additional parameters for assessment. • e) Toxic effects of drug treatment were assessed by Body Weight Loss % • f) Lethal toxicity was defined as any death in treated groups occurring before any control death. Mice were inspected daily for mortality and toxic clinical signs.

[5] = test system: pSTAT3; experiment: pSTAT3 inhibition (Western blot in DU 145 / SKOV-3 cells; ELISA in HepG2 cells); assay type: cell-based; settings: in words; FIGS. 1 and 2
Protocol: Western blot analysis was performed as described by Kammer W et. al (J Biol Chem 271, 23634-23637, and J Biol Chem 273, 31222-31229). Briefly, 60 μg of whole cell extract was solubilized in Laemmeli buffer (50 mM Tris/HCl, pH 6.8, 2% SDS, 10% glycerol, 1 mM DTT, 1× Protease inhibitor cocktail, SET-3 (Calbiochem), 1 mM Sodium Ortho-vanadate) boiled for 5-10 minutes, and separated on a 10 or 12% acrylamide SDS gel. After protein transfer, the nitrocellulose membranes were blocked in blocking buffer for 2 hour (1×TBS, 0.1% Tween-20, 5% BSA). Membranes were incubated for 20 hours in blocking buffer containing, STAT3 P-Tyr705 (Santa Cruz Biotech), STAT3 (H-190, Santa Cruz Biotech) and Actin (C-2, Santa Cruz Biotech) antibody at 1:300 dilution. Detection was performed with HRP conjugated antimouse/antirabbit IgG (Santa Cruz Biotech) at a dilution of 1:3,000 for 1 hour. Visualization was performed using an Enhanced Chemiluminescence detection kit (Amersham). See Appended Diagrams: FIGS. 1 and 2. […]
Capture Antibody was diluted to a working concentration of 2.0 μg/mL in PBS. […] The plates were made ready after 2-3 washes with wash buffer. […] The reaction was stopped by adding 50 μl of stop solution to each well and the OD was determined using a microplate reader at 450 nm.

[6] = test system: MDAMB-231/U 251; experiment: Anti-cancer screen (MTT), MDAMB-231/U 251 cells; assay type: cell-based; settings: MDAMB-231/U 251, 48 hours, concentrations tested 0.01-100 μM; for CC50: read-out: LC50 (the source's name)
Protocol: as §1, §2, §3, §4

[7] = test system: NCIH460 cells; experiment: Anti-cancer screen (MTT), NCIH460 cells; assay type: cell-based; settings: Homo sapiens, NCI-H460, NCIH460, 48 hours, concentrations tested 0.01-100 μM; for CC50: read-out: LC50 (the source's name)
Protocol: as §1, §2, §3, §4

[8] = test system: Jak2/Stat3 signaling; settings: literature (Burdelya et al., 2002; Meydan et al., 1996; Constantin et al., 1998); cited from earlier work
[9] = mouse, in vivo
Protocol: as §5, §6

Structure (SMILES)	GI50 [1] [µM]	inhibition at 0.1 µM ([2]; Homo sapiens, NCI-H460, 0.1 μM) [%]	inhibition at 1 µM ([2]; Homo sapiens, NCI-H460, 1 μM) [%]	IC50 ([2]; Homo sapiens, NCI-H460, read-out: IL-6 Inhibition IC50) [µM]	GI50 [3] [µM]	IC (TGI) [3] [µM]	LC50 (concentration for 50% net cell kill relative to T0) [3] [µM]	in-vivo anti-cancer activity [4]	inhibition against NCI H460 Xenograft model ([4]; SCID mice, gavage, every day for 21 days) [%]	pSTAT3 inhibition [5]	GI50 [6] [µM]	IC (TGI) [6] [µM]	CC50 [6] [µM]	GI50 [7] [µM]	IC (TGI) [7] [µM]	CC50 [7] [µM]	concentration needed to show Jak/Stat3 signaling inhibition and anti-tumor activity [8] [µM]	IL-6 Inhibition IC50 (μM) [2]	body weight loss [9]
COc1ccc(CNCC(O)COc2cccc3[nH]c4ccccc4c23)c(OC)c1 (racemic) [Example 1, 1-(9H-carbazol-4-yloxy)-3-[(2,4-dimethoxybenzyl)amino]propan-2-ol]	4.8	45.7	55.3	5	8.5	39	79	good in-vivo anti-cancer activity	52	work through pSTAT3 inhibition; also recorded: mechanism of action was through pSTAT3 inhibition	5	9.8	60	0.78	18	62			
N#C/C(=C/c1ccc(O)c(O)c1)C(=O)NCc1ccccc1 [AG490]																	50 to 100		
COc1ccc(CNC[C@@H](O)COc2cccc3[nH]c4ccccc4c23)c(OC)c1 [Example 24, (2R)-1-(9H-carbazol-4-yloxy)-3-[(2,4-dimethoxy-benzyl)amino]propan-2-ol]	9				8.3	53	80	good anti-cancer activity			18	51	79	0.76	53	67		No activity	no body weight loss was observed
